The values below are quoted from earlier work in paper PMC12452389, “Arginine-Derived Cationic Surfactants Containing Phenylalanine and Tryptophan: Evaluation of Antifungal Activity, Biofilm Eradication, Cytotoxicity, and Ecotoxicity” (Journal of Xenobiotics, 2025).

Usually MIC stands for the least concentration at which growth counts as inhibited.

Data set [1] deals with S. aureus SH1000. Details: method as in PMID 19889790. The note with it: cited from earlier work.
The subject of data set [2] is S. aureus SH1000. On the set-up: method as in PMID 19889790. The note with it: cited from earlier work. The source holds these as a separate data set.

Values after ≈ are worked out from the molar mass of the structure shown.

Take `[H]/N=C(\N/C(=N/[H])NCCCCCCNC(=N)NC(=N)Nc1ccc(Cl)cc1)Nc1ccc(Cl)cc1` [chlorhexidine]: the MBEC in data set [1] is over 256 µg/mL. Further, the minimal inhibitory concentration (MIC) in data set [2] was 1 mg/L (≈ 1.98 µM).
Regarding `CN(C)[C@@H]1C(O)=C(C(N)=O)C(=O)[C@@]2(O)C(O)=C3C(=O)c4c(O)cccc4[C@@](C)(O)[C@H]3C[C@@H]12` [tetracycline], in data set [1], the MBEC is listed as over 256 µg/mL. Moreover, in data set [2], the minimum inhibitory concentration (MIC) was 0.5 mg/L (≈ 1.13 µM).
As for `O=C(O)c1cn(C2CC2)c2cc(N3CCNCC3)c(F)cc2c1=O` [ciprofloxacin], the MBEC in data set [1] is listed as over 256 µg/mL. For the same molecule, in data set [2], the MIC is 4 mg/L (≈ 12.1 µM).
For the molecule `CCCCCCCCCCCCCCCC[N+](C)(C)C.[Br-]` [CTAB], the MBEC in data set [1] was over 256 µg/mL. Further, in data set [2], the MIC is 2 mg/L.
